Reference: ChEMBL document CHEMBL5726195, “Pharmaceutically active pyrazine derivatives” (2017)

Molecular target: T1, Serine/threonine-protein kinase Chk1 (Homo sapiens, UniProt O14757)
T1 sequence (O14757 whole entry): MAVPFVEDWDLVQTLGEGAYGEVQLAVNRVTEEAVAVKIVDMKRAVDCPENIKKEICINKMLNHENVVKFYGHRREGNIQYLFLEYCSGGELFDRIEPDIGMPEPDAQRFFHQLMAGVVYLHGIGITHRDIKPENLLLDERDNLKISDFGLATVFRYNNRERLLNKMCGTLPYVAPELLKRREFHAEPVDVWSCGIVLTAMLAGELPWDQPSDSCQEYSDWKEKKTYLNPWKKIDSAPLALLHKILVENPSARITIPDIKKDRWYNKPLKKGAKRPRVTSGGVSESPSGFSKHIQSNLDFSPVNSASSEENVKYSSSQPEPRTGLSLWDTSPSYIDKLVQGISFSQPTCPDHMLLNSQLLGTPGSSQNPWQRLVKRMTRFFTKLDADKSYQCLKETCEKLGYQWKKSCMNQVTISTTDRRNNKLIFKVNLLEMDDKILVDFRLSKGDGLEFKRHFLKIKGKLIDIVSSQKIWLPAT
Experiment: Kinase Inhibition Asssay: Reaction Buffer:Base Reaction buffer: 20 mM Hepes (pH 7.5), 10 mM MgCl2, 1 mM EGTA, 0.02% Brij35, 0.02 mg/ml BSA, 0.1 mM Na3VO4, 2 mM DTT, 1% DMSORequired cofactors are added individually to each kinase reactionReaction Procedure:(i) Prepare indicated substrate in freshly prepared Base Reaction Buffer(ii) Deliver any required cofactors to the substrate solution above(iii) Deliver indicated kinase into the substrate solution and gently mix(iv) Deliver compounds in DMSO into the kinase reaction mixture(v) Deliver 33P-ATP (specific activity 0.01 μCi/μl final) into the reaction mixture to initiate the reaction.(vi) Incubate kinase reaction for 120 minutes at room temperature(vii) Reactions are spotted onto P81 ion exchange paper (Whatman #3698-915)(viii) Wash filters extensively in 0.1% phosphoric acid.(ix) Dry filters and measure counts in scintillation counterKinase Information:CHK-1 Genbank Accession # AF016582Recombinant full length construct, N-terminal GST tagged, purified from insect cells.No special measures were taken to activate this kinase.Final concentration in assay=0.5 nMSubstrate: CHKtidePeptide sequence: [[…]]Final concentration in assay=20 μM

Row | Structure (SMILES) | IC50 [nM]
1 | COc1cc(CCNC[C@@H]2CCCNC2)c(Cl)cc1NC(=O)Nc1cnc(C#N)cn1 | 0.1
2 | COc1cc(CCNC[C@H]2CCCNC2)c(Cl)cc1NC(=O)Nc1cnc(C#N)cn1 | 0.06
